Measurements reported in publication PMC4979471 (Cell Death Discovery, 2015).
Read-outs that look alike come from different tables or passages of the source.

Key:
Experiment in all cases: Kinase selectivity, P33-radiolabeled assay
Format in all cases: biochemical
Details in all cases: 10 μM ATP
CAMK2a = molecular target: T1, CAMK2a (Homo sapiens, UniProt Q9UQM7)
T1 construct: purchased Reaction Biology Corp
How it was run: (§1)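 Each enzyme was exposed to 10 μM compound, with duplicate measurements, in reactions containing 10 μM ATP. Numbers are remaining activity as a percent of the vehicle (DMSO) signal.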

EPHB2 = molecular target: T2, EPHB2 (Homo sapiens, UniProt P29323)
T2 construct: purchased Reaction Biology Corp
T2 sequence (P29323 19-1055): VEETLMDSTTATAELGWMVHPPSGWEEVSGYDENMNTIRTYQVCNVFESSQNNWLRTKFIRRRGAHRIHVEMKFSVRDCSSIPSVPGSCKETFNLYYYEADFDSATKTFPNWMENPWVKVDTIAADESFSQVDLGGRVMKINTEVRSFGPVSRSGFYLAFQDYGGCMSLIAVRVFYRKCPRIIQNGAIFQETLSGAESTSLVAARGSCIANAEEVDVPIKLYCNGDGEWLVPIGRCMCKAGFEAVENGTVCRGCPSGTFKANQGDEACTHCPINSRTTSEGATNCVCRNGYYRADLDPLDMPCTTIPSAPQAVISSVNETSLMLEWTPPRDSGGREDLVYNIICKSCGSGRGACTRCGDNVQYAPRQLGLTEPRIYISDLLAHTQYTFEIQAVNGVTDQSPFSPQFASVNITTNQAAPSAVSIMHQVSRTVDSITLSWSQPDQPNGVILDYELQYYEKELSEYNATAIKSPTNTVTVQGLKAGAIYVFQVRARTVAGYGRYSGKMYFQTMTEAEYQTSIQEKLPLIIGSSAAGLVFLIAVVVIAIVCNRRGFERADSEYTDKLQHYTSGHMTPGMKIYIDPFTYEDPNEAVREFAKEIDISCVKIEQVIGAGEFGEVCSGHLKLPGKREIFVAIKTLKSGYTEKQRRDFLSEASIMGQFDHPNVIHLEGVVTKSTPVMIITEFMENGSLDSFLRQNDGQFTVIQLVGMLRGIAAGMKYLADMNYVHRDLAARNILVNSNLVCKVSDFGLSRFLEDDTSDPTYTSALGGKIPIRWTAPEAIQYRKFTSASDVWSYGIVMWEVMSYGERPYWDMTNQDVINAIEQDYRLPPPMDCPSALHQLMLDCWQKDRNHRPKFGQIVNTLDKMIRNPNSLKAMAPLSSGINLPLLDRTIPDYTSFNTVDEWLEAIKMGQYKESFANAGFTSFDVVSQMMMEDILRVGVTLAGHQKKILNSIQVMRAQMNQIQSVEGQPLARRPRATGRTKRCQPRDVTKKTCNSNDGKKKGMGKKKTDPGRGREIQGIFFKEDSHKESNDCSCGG
How it was run: as §1

GSK3a = molecular target: T3, GSK3a (Homo sapiens, UniProt P49840)
T3 construct: purchased Reaction Biology Corp
T3 sequence (P49840 whole entry): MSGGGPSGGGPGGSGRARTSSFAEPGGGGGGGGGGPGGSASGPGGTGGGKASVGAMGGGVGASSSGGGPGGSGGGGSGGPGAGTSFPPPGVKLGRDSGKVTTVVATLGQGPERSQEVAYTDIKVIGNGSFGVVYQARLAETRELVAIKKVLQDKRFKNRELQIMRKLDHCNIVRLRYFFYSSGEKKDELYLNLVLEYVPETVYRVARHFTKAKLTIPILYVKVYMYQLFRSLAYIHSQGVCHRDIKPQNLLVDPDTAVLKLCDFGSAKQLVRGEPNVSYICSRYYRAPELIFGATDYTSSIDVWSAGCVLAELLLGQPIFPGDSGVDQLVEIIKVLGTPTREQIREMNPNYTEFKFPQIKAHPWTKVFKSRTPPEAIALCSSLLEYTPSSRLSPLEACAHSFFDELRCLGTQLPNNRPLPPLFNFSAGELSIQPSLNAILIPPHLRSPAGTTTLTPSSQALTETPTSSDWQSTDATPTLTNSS
How it was run: as §1

HIPK4 = molecular target: T4, HIPK4 (Homo sapiens, UniProt Q8NE63)
T4 construct: purchased Reaction Biology Corp
T4 sequence (Q8NE63 1-616): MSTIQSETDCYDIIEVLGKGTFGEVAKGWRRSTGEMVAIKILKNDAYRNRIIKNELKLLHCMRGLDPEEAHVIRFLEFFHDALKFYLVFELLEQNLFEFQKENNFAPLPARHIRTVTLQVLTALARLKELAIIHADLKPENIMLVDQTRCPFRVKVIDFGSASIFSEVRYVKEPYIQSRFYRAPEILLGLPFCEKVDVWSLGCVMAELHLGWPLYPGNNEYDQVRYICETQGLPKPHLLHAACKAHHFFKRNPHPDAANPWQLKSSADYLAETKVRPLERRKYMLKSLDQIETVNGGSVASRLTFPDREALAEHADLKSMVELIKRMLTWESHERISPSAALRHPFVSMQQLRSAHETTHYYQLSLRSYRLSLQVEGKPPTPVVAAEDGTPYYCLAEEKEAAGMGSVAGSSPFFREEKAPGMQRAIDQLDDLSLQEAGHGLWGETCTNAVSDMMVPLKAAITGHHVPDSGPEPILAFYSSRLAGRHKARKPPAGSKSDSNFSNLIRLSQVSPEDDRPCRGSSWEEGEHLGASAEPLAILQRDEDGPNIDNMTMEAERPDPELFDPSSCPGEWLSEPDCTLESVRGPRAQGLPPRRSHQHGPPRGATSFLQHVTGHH
How it was run: as §1

PKCeta = molecular target: T5, PKCeta (Homo sapiens, UniProt P24723)
T5 construct: purchased Reaction Biology Corp
T5 sequence (P24723 whole entry): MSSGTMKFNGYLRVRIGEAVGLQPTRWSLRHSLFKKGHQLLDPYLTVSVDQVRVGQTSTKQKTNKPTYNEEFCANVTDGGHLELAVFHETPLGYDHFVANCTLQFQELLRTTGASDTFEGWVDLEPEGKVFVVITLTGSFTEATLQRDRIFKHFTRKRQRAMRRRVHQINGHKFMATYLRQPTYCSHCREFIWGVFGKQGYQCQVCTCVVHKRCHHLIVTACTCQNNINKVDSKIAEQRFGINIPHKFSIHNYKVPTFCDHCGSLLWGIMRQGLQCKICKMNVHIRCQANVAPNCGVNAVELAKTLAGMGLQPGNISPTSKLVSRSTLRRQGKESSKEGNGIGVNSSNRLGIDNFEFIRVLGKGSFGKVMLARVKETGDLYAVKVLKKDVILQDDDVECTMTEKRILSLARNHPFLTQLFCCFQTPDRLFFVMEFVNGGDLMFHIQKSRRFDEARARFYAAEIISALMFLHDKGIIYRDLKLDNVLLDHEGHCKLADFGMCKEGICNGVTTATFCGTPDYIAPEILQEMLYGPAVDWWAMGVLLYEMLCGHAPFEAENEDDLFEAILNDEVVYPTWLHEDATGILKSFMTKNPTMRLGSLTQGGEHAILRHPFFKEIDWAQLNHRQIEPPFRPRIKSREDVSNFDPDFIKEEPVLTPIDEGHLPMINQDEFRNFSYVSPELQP
How it was run: as §1

TNIK = molecular target: T6, TNIK (Homo sapiens, UniProt Q9UKE5)
T6 construct: purchased Reaction Biology Corp
T6 sequence (Q9UKE5 whole entry): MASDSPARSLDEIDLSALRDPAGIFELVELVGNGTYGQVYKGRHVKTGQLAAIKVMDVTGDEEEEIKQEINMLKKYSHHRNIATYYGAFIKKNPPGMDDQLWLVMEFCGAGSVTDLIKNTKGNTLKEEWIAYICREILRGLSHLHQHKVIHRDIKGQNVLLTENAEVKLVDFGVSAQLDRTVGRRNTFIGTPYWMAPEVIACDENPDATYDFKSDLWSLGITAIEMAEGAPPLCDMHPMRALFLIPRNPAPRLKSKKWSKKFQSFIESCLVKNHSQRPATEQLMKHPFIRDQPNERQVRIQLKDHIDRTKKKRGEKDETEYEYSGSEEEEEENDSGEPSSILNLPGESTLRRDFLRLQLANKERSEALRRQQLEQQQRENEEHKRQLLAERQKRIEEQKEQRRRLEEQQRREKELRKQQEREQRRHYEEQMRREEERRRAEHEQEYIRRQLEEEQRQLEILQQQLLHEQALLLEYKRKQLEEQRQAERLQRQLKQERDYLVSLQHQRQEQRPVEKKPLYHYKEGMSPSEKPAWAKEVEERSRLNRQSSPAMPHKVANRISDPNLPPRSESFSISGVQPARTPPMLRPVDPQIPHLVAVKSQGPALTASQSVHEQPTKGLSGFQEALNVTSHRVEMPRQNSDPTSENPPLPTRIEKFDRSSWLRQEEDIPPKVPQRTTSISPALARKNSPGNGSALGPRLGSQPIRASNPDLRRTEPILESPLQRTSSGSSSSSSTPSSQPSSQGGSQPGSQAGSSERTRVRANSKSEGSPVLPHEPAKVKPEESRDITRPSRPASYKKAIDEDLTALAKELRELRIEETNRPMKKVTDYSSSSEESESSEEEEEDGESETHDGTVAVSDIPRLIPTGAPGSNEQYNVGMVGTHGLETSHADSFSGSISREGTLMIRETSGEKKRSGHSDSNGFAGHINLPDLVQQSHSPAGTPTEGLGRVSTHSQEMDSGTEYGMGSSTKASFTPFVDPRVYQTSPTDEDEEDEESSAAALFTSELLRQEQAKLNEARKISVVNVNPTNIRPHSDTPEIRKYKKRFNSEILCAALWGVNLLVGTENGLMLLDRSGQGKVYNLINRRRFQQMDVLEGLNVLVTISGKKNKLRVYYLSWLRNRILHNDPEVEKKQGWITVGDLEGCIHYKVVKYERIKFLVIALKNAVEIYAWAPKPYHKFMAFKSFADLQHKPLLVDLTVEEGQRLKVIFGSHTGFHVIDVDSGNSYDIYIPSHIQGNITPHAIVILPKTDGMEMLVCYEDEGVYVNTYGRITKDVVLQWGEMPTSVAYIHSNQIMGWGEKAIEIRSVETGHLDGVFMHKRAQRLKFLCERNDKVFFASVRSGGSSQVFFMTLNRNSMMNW
How it was run: as §1

TRKB = molecular target: T7, TRKB (Homo sapiens, UniProt Q16620)
T7 construct: purchased Reaction Biology Corp
T7 sequence (Q16620 32-822): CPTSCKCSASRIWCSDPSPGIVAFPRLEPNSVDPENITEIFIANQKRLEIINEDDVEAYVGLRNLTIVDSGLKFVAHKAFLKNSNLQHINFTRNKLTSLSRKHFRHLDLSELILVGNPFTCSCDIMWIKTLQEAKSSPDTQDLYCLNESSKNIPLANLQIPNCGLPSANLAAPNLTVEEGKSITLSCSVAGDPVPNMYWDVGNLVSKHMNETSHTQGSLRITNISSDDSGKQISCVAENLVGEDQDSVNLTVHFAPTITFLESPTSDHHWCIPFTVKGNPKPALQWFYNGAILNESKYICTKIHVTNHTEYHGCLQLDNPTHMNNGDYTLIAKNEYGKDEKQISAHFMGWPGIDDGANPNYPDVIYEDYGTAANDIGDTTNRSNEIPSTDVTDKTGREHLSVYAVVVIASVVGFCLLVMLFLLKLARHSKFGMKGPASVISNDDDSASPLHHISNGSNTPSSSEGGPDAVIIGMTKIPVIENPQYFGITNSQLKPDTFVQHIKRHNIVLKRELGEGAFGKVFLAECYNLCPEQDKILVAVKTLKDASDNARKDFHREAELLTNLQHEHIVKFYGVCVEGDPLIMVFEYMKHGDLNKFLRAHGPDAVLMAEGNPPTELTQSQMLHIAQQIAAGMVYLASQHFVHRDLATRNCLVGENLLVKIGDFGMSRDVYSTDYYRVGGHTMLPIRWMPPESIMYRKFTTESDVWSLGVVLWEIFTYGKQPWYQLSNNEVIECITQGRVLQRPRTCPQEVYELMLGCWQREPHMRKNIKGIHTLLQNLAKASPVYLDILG
How it was run: as §1

WNK3 = molecular target: T8, WNK3 (Homo sapiens, UniProt Q9BYP7)
T8 construct: purchased Reaction Biology Corp
How it was run: as §1

[1] = read-out: % Enzyme Activity (relative to DMSO controls) AVG
[2] = read-out: % Enzyme Activity (relative to DMSO controls) Data 1
[3] = read-out: % Enzyme Activity (relative to DMSO controls) Data 2

T1 sequence (Q9UQM7 whole entry): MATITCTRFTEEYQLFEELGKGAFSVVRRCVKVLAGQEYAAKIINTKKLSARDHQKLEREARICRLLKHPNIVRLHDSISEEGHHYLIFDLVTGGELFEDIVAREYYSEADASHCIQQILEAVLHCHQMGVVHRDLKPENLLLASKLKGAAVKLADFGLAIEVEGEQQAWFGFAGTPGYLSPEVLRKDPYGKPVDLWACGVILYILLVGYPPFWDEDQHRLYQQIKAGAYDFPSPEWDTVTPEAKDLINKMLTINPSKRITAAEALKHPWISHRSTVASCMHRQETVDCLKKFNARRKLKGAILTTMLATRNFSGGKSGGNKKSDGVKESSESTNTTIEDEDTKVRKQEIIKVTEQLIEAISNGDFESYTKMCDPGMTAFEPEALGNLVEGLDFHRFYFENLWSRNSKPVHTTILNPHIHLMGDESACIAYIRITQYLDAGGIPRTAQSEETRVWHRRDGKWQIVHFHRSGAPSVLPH

CC(C)(C)C(=O)N1N=CC[C@H]1c1ccccc1 [GSK′963]
remaining activity at 10 µM (CAMK2a; [1]): 102% | remaining activity at 10 µM (CAMK2a; [2]): 101% | remaining activity at 10 µM (CAMK2a; [3]): 102% | remaining activity at 10 µM (EPHB2; [1]): 105% | remaining activity at 10 µM (EPHB2; [2]): 108% | remaining activity at 10 µM (EPHB2; [3]): 102% | remaining activity at 10 µM (GSK3a; [1]): 111% | remaining activity at 10 µM (GSK3a; [2]): 107% | remaining activity at 10 µM (GSK3a; [3]): 114% | remaining activity at 10 µM (HIPK4; [1]): 99.5% | remaining activity at 10 µM (HIPK4; [2]): 96.7% | remaining activity at 10 µM (HIPK4; [3]): 102% | remaining activity at 10 µM (PKCeta; [1]): 113% | remaining activity at 10 µM (PKCeta; [2]): 112% | remaining activity at 10 µM (PKCeta; [3]): 114% | remaining activity at 10 µM (TNIK; [1]): 106% | remaining activity at 10 µM (TNIK; [2]): 108% | remaining activity at 10 µM (TNIK; [3]): 104% | remaining activity at 10 µM (TRKB; [1]): 101% | remaining activity at 10 µM (TRKB; [2]): 101% | remaining activity at 10 µM (TRKB; [3]): 100% | remaining activity at 10 µM (WNK3; [1]): 100% | remaining activity at 10 µM (WNK3; [2]): 97.5% | remaining activity at 10 µM (WNK3; [3]): 103%
